The values below come from patent US10104889B2 (priority 2011, dated 2018).

The assay deals with Candidatus ‘Liberibacter asiaticus’. The class given is in vivo. The note with it: 1 μM, all tested variants, monthly until sixth month, FIG. 6.

On to `C[C@@H]1CC[C@@]2(OC1)O[C@H]1C[C@H]3[C@@H]4CC[C@H]5CC(O)CC[C@]5(C)[C@H]4OC(=O)C[C@]3(C)[C@H]1[C@@H]2C` (stereo partly drawn) [brassinosteroid analogue, (25R)-3-hydroxy-C-homo-11-oxa-5-espirostan-12-one], for which the “bacterial reduction at application frequencies 1, 2 and 4 times per month” value is recorded as “bacterial reduction was observed”.
